26 compounds from ChEMBL document CHEMBL1134724, “Novel (4-piperazin-1-ylquinolin-6-yl) arylsulfonamides with high affinity and selectivity for the 5-HT(6) receptor” (Bioorg Med Chem Lett, 2001) can be followed below.

Experiment [1] addresses T1, 5-hydroxytryptamine receptor 6 (Homo sapiens, UniProt P50406). In words: Binding affinity against human 5-hydroxytryptamine 6 receptor.
Experiment [2] can be described thus: Selectivity ratio as antilogarithm of smallest difference between the pKi value at 5-HT6 receptor and range of comparator receptors.
The target of experiment [3] is 5-hydroxytryptamine receptor 7 (Homo sapiens, UniProt P34969). In words: Binding affinity to human cloned 5-hydroxytryptamine 7 receptor in HEK 293 cells using [3H]-5-CT as radioligand. Format: cell-based, HEK293.
5-hydroxytryptamine receptor 7, sequence (P34969 whole entry): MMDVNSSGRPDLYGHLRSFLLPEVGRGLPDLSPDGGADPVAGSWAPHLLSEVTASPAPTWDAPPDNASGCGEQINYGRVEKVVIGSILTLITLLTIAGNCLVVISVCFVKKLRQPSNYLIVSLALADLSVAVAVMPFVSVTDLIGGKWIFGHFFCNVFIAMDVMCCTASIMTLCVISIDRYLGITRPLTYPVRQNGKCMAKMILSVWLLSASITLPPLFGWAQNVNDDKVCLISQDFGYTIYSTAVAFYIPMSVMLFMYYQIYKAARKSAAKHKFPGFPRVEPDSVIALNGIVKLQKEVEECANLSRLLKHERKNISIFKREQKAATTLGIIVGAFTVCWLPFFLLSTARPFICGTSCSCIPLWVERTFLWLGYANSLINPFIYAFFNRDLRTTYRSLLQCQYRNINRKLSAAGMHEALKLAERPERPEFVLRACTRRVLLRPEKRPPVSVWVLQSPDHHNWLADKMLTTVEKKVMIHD
Experiment [4] has as its target 5-hydroxytryptamine receptor 2A (Homo sapiens, UniProt P28223). Put plainly: Binding affinity to human cloned 5-hydroxytryptamine 2A receptor in HEK 293 cells using [3H]- ketanserin as radioligand. Format: cell-based, HEK293.
A further experiment addresses D(2) dopamine receptor (Homo sapiens, UniProt P14416). Put plainly: Binding affinity to human cloned Dopamine receptor D2 in CHO cells using [125I]- iodosulpride as radioligand. The format is cell-based.
Another experiment addresses D(3) dopamine receptor (Homo sapiens, UniProt P35462). In words: Binding affinity to human cloned Dopamine receptor D3 in CHO cells using [125I]- iodosulpride as radioligand. Format: cell-based.
The target of experiment [5] is 5-hydroxytryptamine receptor 2B (Homo sapiens, UniProt P41595). In words: Binding affinity to human cloned 5-HT2B receptor in HEK 293 cells using [3H]- -5-HT as radioligand. The format is cell-based, HEK293.
5-hydroxytryptamine receptor 2B, sequence (P41595 whole entry): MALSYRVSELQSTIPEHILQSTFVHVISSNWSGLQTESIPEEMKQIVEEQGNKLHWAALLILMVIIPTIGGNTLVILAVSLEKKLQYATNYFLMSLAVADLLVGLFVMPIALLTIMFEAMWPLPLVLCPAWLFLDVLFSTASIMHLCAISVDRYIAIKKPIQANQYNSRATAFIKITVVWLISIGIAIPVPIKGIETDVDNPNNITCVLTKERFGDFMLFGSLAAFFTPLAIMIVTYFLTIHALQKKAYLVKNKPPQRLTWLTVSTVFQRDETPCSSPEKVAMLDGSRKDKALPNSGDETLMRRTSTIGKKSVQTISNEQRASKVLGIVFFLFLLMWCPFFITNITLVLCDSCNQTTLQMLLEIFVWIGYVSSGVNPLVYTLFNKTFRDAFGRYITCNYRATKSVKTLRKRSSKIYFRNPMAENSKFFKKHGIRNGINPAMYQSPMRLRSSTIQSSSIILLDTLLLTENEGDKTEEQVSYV
Experiment [6] concerns the target 5-hydroxytryptamine receptor 1B (Homo sapiens, UniProt P28222). In words: Binding affinity to human cloned 5-hydroxytryptamine 1B receptor in CHO cells using [3H]5-HT as radioligand. Format: cell-based.
Experiment [7] deals with 5-hydroxytryptamine receptor 1D (Homo sapiens, UniProt P28221). In words: Binding affinity to human cloned 5-hydroxytryptamine 1D receptor in CHO cells using [3H]5-HT as radioligand. The format is cell-based.
5-hydroxytryptamine receptor 1D, sequence (P28221 whole entry): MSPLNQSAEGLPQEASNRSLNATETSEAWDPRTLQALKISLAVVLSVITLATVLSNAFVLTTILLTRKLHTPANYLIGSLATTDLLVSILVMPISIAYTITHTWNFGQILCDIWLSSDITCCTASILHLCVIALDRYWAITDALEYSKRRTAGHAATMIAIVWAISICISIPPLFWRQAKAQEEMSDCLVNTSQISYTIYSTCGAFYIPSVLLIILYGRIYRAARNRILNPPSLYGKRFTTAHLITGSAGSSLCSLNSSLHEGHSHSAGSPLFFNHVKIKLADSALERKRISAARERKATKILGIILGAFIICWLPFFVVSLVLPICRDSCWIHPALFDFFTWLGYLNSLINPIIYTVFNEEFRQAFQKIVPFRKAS
For experiment [8], the target named is T1, 5-hydroxytryptamine receptor 6. In words: Binding affinity to human cloned 5-HT6 receptor in HeLa cells using [3H]- LSD as radioligand. The format is cell-based.
Experiment [9] addresses T2, 5-hydroxytryptamine receptor 1A (Homo sapiens, UniProt P08908).
T2 sequence (P08908 whole entry): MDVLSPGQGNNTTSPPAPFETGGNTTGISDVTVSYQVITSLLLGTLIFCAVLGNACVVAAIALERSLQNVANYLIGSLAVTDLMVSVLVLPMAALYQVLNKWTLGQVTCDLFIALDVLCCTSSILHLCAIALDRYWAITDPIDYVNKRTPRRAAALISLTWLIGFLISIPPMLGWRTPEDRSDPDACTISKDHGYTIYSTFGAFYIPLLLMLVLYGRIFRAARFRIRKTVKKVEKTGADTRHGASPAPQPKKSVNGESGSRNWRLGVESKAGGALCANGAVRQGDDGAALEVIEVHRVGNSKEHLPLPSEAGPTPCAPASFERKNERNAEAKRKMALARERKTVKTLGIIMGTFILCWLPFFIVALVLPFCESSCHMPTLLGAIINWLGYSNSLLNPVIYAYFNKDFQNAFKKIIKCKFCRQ
In words: Binding affinity to human cloned 5-hydroxytryptamine 1A receptor in HEK 293 cells using [3H]-8-OH- DPAT as radioligand. The format is cell-based, HEK293.

Experiment [10] deals with T3, 5-hydroxytryptamine receptor 2C (Homo sapiens, UniProt P28335).
T3 sequence (P28335 whole entry): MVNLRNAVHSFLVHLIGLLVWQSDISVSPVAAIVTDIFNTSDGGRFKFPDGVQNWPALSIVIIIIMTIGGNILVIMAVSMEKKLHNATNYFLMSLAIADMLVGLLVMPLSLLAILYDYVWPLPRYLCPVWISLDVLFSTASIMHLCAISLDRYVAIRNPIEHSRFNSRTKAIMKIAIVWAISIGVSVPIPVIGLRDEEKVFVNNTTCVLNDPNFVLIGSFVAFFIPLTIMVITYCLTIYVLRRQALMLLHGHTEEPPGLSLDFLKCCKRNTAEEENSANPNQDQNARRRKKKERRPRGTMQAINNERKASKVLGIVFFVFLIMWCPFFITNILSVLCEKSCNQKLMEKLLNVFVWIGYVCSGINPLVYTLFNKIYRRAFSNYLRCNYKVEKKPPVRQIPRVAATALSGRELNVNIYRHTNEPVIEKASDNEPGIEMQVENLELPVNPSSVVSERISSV
Put plainly: Binding affinity to human cloned 5-hydroxytryptamine 2C receptor in HEK 293 cells using [3H]- mesulergine as radioligand. Format: cell-based, HEK293.

Experiment [11] addresses T1, 5-hydroxytryptamine receptor 6. In words: Binding affinity to human cloned 5-hydroxytryptamine 6 receptor in HeLa cells using [3H]- LSD as radioligand. Format: cell-based.

5-hydroxytryptamine receptor 1B, sequence (P28222 whole entry): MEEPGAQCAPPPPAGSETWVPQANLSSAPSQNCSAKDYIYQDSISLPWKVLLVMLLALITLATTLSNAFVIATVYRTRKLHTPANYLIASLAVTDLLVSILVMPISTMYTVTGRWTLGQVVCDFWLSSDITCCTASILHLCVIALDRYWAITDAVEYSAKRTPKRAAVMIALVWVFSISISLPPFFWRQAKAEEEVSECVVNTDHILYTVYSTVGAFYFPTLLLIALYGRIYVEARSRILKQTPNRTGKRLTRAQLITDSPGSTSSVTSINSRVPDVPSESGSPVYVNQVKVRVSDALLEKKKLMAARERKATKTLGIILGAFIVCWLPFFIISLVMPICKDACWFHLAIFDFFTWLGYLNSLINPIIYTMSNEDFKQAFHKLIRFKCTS
D(2) dopamine receptor, sequence (P14416 whole entry): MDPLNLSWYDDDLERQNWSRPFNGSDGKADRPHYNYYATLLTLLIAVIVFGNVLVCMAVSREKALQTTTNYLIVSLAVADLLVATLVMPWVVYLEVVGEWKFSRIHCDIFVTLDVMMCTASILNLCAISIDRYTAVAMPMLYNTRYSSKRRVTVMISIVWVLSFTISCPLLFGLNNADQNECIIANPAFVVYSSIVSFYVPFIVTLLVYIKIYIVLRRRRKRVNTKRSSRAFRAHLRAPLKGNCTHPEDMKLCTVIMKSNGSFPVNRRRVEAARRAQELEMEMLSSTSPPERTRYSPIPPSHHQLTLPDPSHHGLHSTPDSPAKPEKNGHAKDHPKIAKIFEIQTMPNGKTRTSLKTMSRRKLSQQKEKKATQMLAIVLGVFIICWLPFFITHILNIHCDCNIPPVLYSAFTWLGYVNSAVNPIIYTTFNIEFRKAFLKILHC
5-hydroxytryptamine receptor 2A, sequence (P28223 whole entry): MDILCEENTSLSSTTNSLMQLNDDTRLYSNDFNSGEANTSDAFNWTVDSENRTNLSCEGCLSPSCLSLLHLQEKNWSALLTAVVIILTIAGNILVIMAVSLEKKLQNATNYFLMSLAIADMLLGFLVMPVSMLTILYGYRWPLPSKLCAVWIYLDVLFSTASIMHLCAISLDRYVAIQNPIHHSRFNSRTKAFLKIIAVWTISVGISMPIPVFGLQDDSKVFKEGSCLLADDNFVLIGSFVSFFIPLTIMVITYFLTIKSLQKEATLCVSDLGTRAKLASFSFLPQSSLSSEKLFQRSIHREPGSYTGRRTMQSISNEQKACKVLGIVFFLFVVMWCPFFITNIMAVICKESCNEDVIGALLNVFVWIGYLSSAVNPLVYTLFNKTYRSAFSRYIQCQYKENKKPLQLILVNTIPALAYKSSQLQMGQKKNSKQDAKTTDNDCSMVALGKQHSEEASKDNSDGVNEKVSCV
D(3) dopamine receptor, sequence (P35462 whole entry): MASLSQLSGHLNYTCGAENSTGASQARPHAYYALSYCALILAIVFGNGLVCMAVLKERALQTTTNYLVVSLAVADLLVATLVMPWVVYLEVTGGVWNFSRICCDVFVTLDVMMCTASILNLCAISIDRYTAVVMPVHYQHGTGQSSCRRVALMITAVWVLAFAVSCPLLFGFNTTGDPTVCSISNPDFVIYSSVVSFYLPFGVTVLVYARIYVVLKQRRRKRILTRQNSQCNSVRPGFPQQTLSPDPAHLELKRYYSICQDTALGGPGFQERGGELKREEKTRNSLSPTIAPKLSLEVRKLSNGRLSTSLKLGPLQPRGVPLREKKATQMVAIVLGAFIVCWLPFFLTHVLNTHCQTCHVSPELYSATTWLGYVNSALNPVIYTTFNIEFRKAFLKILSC
T1 sequence (P50406 whole entry): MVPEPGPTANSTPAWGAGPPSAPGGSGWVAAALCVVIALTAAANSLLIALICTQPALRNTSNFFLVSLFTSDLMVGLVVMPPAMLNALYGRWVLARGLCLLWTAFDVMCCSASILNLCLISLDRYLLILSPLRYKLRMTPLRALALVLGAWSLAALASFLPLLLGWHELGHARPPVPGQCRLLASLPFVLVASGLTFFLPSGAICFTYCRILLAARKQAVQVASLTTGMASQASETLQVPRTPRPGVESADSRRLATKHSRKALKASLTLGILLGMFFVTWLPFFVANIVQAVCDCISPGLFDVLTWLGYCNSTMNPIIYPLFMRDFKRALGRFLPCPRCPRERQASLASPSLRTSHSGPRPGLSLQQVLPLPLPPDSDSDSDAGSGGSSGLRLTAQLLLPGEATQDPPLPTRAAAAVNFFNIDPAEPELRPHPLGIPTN

Broadly, the Ki is the equilibrium dissociation constant of an inhibitor or competing ligand from its target. Low readings indicate a stronger hold on the target, high ones a looser hold on the target. In turn, `Cc1c(S(=O)(=O)Nc2ccc3nccc(N4CCNCC4)c3c2)sc2c(Cl)cc(Cl)cc12` had a Ki in experiment [1] of 6.31 nM. The Selectivity ratio in experiment [2] was 25.
`Cc1c(S(=O)(=O)Nc2ccc3nccc(N4CCN[C@H](C(C)C)C4)c3c2)sc2ccc(Cl)cc12` gave a Ki in experiment [1] of 20 nM.
In turn, `Cc1c(S(=O)(=O)Nc2ccc3nccc(N4CCNCC4)c3c2)oc2ccc(Cl)cc12` had a Ki in [1] of 3.98 nM. Moreover, the Selectivity ratio in [2] stood at 200.
In the case of `O=S(=O)(Nc1ccc2nccc(N3CCNCC3)c2c1)c1ccc(-c2ccccc2)cc1`, the Ki is greater than 10000 nM in [3]; 501 nM in [4]; greater than 5010 nM on D(2) dopamine receptor; greater than 3160 nM at D(3) dopamine receptor; 0.501 nM in experiment [1]; greater than 7940 nM in [5]. Besides, the Ki in experiment [6] was 316 nM; in experiment [7], 158 nM; in [8], 0.501 nM; in experiment [9], 631 nM. Also, the Selectivity ratio in [2] stood at 320.
The compound `Cc1cnc2ccc(NS(=O)(=O)c3sc4ccc(Cl)cc4c3C)cc2c1N1CCNCC1` showed a Ki in experiment [1] of 2.51 nM. In experiment [2], the Selectivity ratio was 100.
Consider `CCc1c(S(=O)(=O)Nc2ccc3nccc(N4CCNCC4)c3c2)sc2ccc(Cl)cc12`, for which the Ki in [3] was greater than 5010 nM; in [4] it was greater than 1260 nM; on D(2) dopamine receptor, greater than 1000 nM; at D(3) dopamine receptor, greater than 10000 nM; in experiment [1] it was 1.26 nM; in experiment [5], greater than 3980 nM. Moreover, the Ki in [10] is 1260 nM; in experiment [6], 3160 nM; in experiment [7], 2510 nM; in experiment [8], 1.26 nM; in experiment [9], greater than 3980 nM. Besides, the Selectivity ratio in [2] was 1000.
For `Cc1c(S(=O)(=O)Nc2ccc3nccc(N4CCN[C@H](C)C4)c3c2)sc2ccc(Cl)cc12`, the affinity in experiment [1], expressed as Ki, was 2 nM. The Selectivity ratio in experiment [2] was determined as 3200.
`O=S(=O)(Nc1ccc2nccc(N3CCNCC3)c2c1)c1cccc2c(Cl)cccc12` showed a Ki in [1] of 3.16 nM. Further, the Selectivity ratio in experiment [2] stood at 80.
In the case of `Cc1cc(S(=O)(=O)Nc2ccc3nccc(N4CCNCC4)c3c2)c(C)cc1Cl`, the affinity in experiment [1], expressed as Ki, was 1.26 nM. The Selectivity ratio in experiment [2] worked out at 500.
Regarding `Cc1c(S(=O)(=O)Nc2ccc3nccc(N4CCN[C@@H](C)C4)c3c2)sc2ccc(Cl)cc12`, the Ki in experiment [3] is greater than 5010 nM; in experiment [4], greater than 2510 nM; at D(2) dopamine receptor, greater than 3160 nM; at D(3) dopamine receptor, greater than 2000 nM; in [1], 1.26 nM; in [5], greater than 6310 nM. For the same compound, the Ki in experiment [10] was greater than 3980 nM; in experiment [6] it was 2510 nM; in [7], 398 nM; in experiment [8], 1.26 nM; in [9] it was 1000 nM. Moreover, the Selectivity ratio in [2] stood at 320.
Turning to `Cc1sc2ccc(Cl)cc2c1S(=O)(=O)Nc1ccc2nccc(N3CCNCC3)c2c1`, the Ki in [3] is 1580 nM; in experiment [4], greater than 2000 nM; on D(2) dopamine receptor it was greater than 3980 nM; on D(3) dopamine receptor it was greater than 1580 nM; in [1] it was 1 nM; in [5] it was 1260 nM. Also, the inhibitory constant (Ki) was 1260 nM in [10]; 501 nM in [6]; 398 nM in experiment [7]; 1 nM in [8]; 251 nM in experiment [9]. Also, the Selectivity ratio in [2] was 250.
As to `Cc1cc(N2CCNCC2)c2cc(NS(=O)(=O)c3sc4ccc(Cl)cc4c3C)ccc2n1`, the inhibitory constant (Ki) was greater than 5010 nM in experiment [3]; greater than 2000 nM in [4]; greater than 6310 nM at D(2) dopamine receptor; greater than 1000 nM on D(3) dopamine receptor; 1.26 nM in experiment [1]; greater than 7940 nM in experiment [5]. Moreover, the Ki is 2510 nM in experiment [10]; 1260 nM in experiment [6]; 316 nM in experiment [7]; 1.26 nM in experiment [8]; 794 nM in [9]. Further, in experiment [2], the Selectivity ratio is 250.
Consider `O=S(=O)(Nc1ccc2nccc(N3CCNCC3)c2c1)c1ccc2c(Cl)cccc2c1`, for which the Ki in experiment [3] is 2510 nM; in experiment [4], 1000 nM; on D(2) dopamine receptor, greater than 5010 nM; at D(3) dopamine receptor, 2510 nM; in [1], 1 nM; in experiment [5], greater than 5010 nM. Also, the Ki in experiment [10] was greater than 2510 nM; in [6], 631 nM; in [7], 200 nM; in experiment [8] it was 1 nM; in [9] it was 158 nM. Besides, the Selectivity ratio in [2] turned out to be 160.
`O=S(=O)(Nc1ccc2nccc(N3CCNCC3)c2c1)c1ccc(I)cc1` had a Ki in [1] of 1.58 nM. For the same compound, the Selectivity ratio in experiment [2] was 100.
The compound `Cc1c(S(=O)(=O)Nc2ccc3nccc(N4CCN5CCC[C@H]5C4)c3c2)sc2ccc(Cl)cc12` gave a Ki in experiment [1] of 2 nM. In addition, the Selectivity ratio in [2] came out at 130.
Consider `Cc1c(S(=O)(=O)Nc2ccc3nccc(N4CCN(C)CC4)c3c2)sc2ccc(Cl)cc12`, for which the Ki is 2000 nM in experiment [3]; 1000 nM in [4]; greater than 7940 nM at D(2) dopamine receptor; greater than 3980 nM at D(3) dopamine receptor; 1 nM in experiment [1]; greater than 10000 nM in [5]. The Ki in experiment [10] is greater than 5010 nM; in experiment [6] it was 501 nM; in experiment [7], 251 nM; in experiment [8] it was 1 nM; in experiment [9], 794 nM. Moreover, the Selectivity ratio in experiment [2] came to 250.
`Cc1c(S(=O)(=O)Nc2ccc3ncc(N4CCN(C)CC4)cc3c2)sc2ccc(Cl)cc12` gave a Ki in experiment [1] of 79.4 nM.
`CC(C)c1c(S(=O)(=O)Nc2ccc3nccc(N4CCNCC4)c3c2)sc2ccc(Cl)cc12` showed an inhibition constant (Ki) in [1] of 1.58 nM. Further, the Selectivity ratio in experiment [2] is 160.
Consider `Cc1sc2cc(Cl)cc(Cl)c2c1S(=O)(=O)Nc1ccc2nccc(N3CCNCC3)c2c1`, for which the inhibitory constant (Ki) in [1] was 7.94 nM. Moreover, in experiment [2], the Selectivity ratio is 40.
As for `Cc1c(S(=O)(=O)Nc2ccc3nccc(N4C[C@@H](C)NC[C@@H]4C)c3c2)sc2ccc(Cl)cc12`, affinity in experiment [1] was put at a Ki of 31.6 nM.
On to `Cc1sc2c(Cl)cc(Cl)cc2c1S(=O)(=O)Nc1ccc2nccc(N3CCNCC3)c2c1`, for which the Ki in experiment [1] was 2 nM. In addition, the Selectivity ratio in experiment [2] came out at 200.
As for `Cc1sc2c(Cl)cccc2c1S(=O)(=O)Nc1ccc2nccc(N3CCNCC3)c2c1`, the affinity in experiment [1] corresponds to a Ki of 2 nM. In experiment [2], the Selectivity ratio was found to be 130.
Turning to `CC(C)(C)c1ccc(S(=O)(=O)Nc2ccc3nccc(N4CCNCC4)c3c2)cc1`, the Ki is greater than 10000 nM in experiment [3]; 0.631 nM in [11]; greater than 3160 nM in [4]; greater than 10000 nM at D(2) dopamine receptor; greater than 5010 nM at D(3) dopamine receptor; 0.631 nM in experiment [1]. Also, the inhibition constant (Ki) is greater than 5010 nM in [5]; greater than 2000 nM in experiment [10]; 1580 nM in experiment [6]; 1260 nM in experiment [7]; 794 nM in experiment [9]. Besides, the Selectivity ratio in experiment [2] was found to be 1260.
Consider `Cc1c(S(=O)(=O)Nc2ccc3nccc(N4CCNCC4)c3c2)sc2ccc(Cl)cc12`, for which the Ki in [3] was greater than 7940 nM; in experiment [4], greater than 2510 nM; on D(2) dopamine receptor, greater than 10000 nM; at D(3) dopamine receptor, greater than 1580 nM; in experiment [1], 2 nM; in [5] it was greater than 5010 nM. The Ki in experiment [10] was greater than 2510 nM; in experiment [6], 2000 nM; in [7] it was 631 nM; in experiment [8], 2 nM; in experiment [9], 1000 nM. In [2], the Selectivity ratio is 320.
Compound `O=S(=O)(Nc1ccc2nccc(N3CCNCC3)c2c1)c1cc(Cl)cc(Cl)c1` gave a Ki in experiment [1] of 25.1 nM.
In [1], `Cc1c(S(=O)(=O)Nc2ccc3nccc(N4C[C@@H](C)N[C@@H](C)C4)c3c2)sc2ccc(Cl)cc12` showed an inhibition constant (Ki) of 5.01 nM. Moreover, in experiment [2], the Selectivity ratio is 160.
